Where a name gives a salt, the structure may show the parent alone. Read-outs that look alike come from different tables or passages of the source.

The assay deals with T1, human FPTase (Homo sapiens, UniProt P49354+P49356).
T1 construct: made in house
Kind of assay: In vitro inhibition of ras farnesyl transferase (human FPTase assay). The assay is classed as biochemical. Here is the method: Assays of farnesyl-protein transferase. […] Reactions were initiated with FPTase and stopped with 1 ml of 1.0 M HCL in ethanol. Precipitates were collected onto filter-mats using a TomTec Mach HI cell harvester, washed with 100% ethanol, dried and counted in an LKB β-plate counter. […] Purified compounds were dissolved in 100% dimethyl sulfoxide (DMSO) and were diluted 20-fold into the assay. Percentage inhibition is measured by the amount of incorporation of radioactivity in the presence of the test compound when compared to the amount of incorporation in the absence of the test compound. […] Human FPTase activity was assayed as described above with the exception that 0.1% (w/v) polyethylene glycol 20,000, 10 μM ZnCl2 and 100 nM Ras-CVIM were added to the reaction mixture. Reactions were performed for 30 min., stopped with 100 μl of 30% (v/v) trichloroacetic acid (TCA) in ethanol and processed as described above for the bovine enzyme.

Broadly, the IC50 is the concentration that gives 50% inhibition. `N#Cc1ccc(Cn2cncc2CN2CC(=O)N(c3ccccc3)CC2=O)cc1` [Example 4, 4-[1-(4-cyanobenzyl)-5-imidazolylmethyl]-1-phenylpiperazine-2,5-dione hydrochloride] yielded a 50% inhibitory concentration (IC50) not above 50 µM. Regarding `N#Cc1ccc(Cn2cncc2CN2CC(=O)N(Cc3ccccc3)CC2=O)cc1` [Example 5, 4-benzyl-1-[1-(4-cyanobenzyl)-5-imidazolylmethyl]-piperazine-2,5-dione hydrochloride], the IC50 (human FPTase, [3H]-FPP, 100 nM Ras-CVIM, 30 min, read-out: IC50, inhibitory activity against human FPTase) is not above 50 µM.

The values are drawn from patent publication US5919785A, “Inhibitors of farnesyl-protein transferase” (Merck & Co., Inc., priority 1997, dated 1999).
